Measurements from US8481456B2 (priority 2009, dated 2013).
Like-named read-outs stand apart in the source and are kept apart here.

How the values were obtained:
Phytophthora infestans = assay: whole plant or invertebrate; assay type: in vivo; conditions: 3 days after the inoculation; for pest or weed control at 200 ppm: 200 ppm a.i.; for pest or weed control at 50 ppm: 50 ppm a.i.
Septoria tritici = Septoria tritici test (wheat)/preventive; assay type: in vivo; conditions: 21 days after the inoculation
[1] = tested on: apple scab (Venturia inaequalis); assay: Venturia test (apples)/preventive; conditions: for Efficacy in %, found: Table L2, 10 days after the inoculation
[2] = tested on: larvae of the mustard beetle (Phaedon cochleariae); assay: Phaedon cochleariae larvae test; assay type: in vivo; conditions: for mortality at 200 ppm: 200 ppm a.i.
Procedure: (§1) Cabbage leaves (Brassica oleracea) are treated by being sprayed into the preparation of the active compound of the desired concentration and are infested with larvae of the mustard beetle (Phaedon cochleariae) as long as the leaves are still moist. After the specified period of time, the mortality in % is determined. 100% means that all the beetle larvae have been killed; 0% means that none of the beetle larvae have been killed.

Alternaria solani = assay: Alternaria test (tomatoes)/preventive; assay type: in vivo; conditions: for pest or weed control at 100 ppm / pest or weed control at 200 ppm: read-out: Efficacy in %, found; for pest or weed control at 12.5 ppm: 12.5 ppm a.i.; for pest or weed control at 25 ppm: 25 ppm a.i.
[3] = tested on: Fusarium nivale (var. majus); assay: Fusarium nivale (var. majus)-test (wheat)/preventive; conditions: 5 days after the inoculation
Pyrenophora teres = Pyrenophora teres test (barley)/preventive; assay type: in vivo; conditions: 8 days after the inoculation
[4] = tested on: larvae of the diamondback moth (Plutella xylostella); assay: Plutella xylostella test; assay type: in vivo; conditions: for mortality at 200 ppm: 200 ppm a.i.
Procedure: as §1, with “diamondback moth (Plutella xylostella)” for “mustard beetle (Phaedon cochleariae)”, “caterpillars” for “beetle larvae”

[5] = tested on: Green peach aphid (Myzus persicae); assay: Myzus persicae test; assay type: in vivo; conditions: for mortality at 0.8 ppm: 0.8 ppm a.i.; for mortality at 200 ppm: 200 ppm a.i.
Procedure: Cabbage leaves (Brassica oleracea) which are heavily infested by the Green peach aphid (Myzus persicae) are treated by being sprayed into the preparation of the active compound of the desired concentration. After the specified period of time, the mortality in % is determined. 100% means that all the aphids have been killed; 0% means that none of the aphids have been killed.

Botrytis cinerea = assay: Botrytis test (beans)/preventive; conditions: 2 days after the inoculation
[6] = tested on: larvae of the fall army worm (Spodoptera frugiperda); assay: Spodoptera frugiperda test/seed application; assay type: in vivo; conditions: corn seed treatment
Procedure: 14 days after sowing the leaves were cut off and infested with larvae of the fall army worm (Spodoptera frugiperda). After the specitied period of time, the mortality in % is determined. 100% means that all the caterpillars have been killed; 0% means that none of the caterpillars have been killed.

Fusarium graminearum = assay type: in vivo; conditions: 1000 ppm a.i.; 5 days after the inoculation
[7] = Phytophthora infestans, 72 h, read-out: Efficacy in %, found, Table I2
[8] = Venturia inaequalis, 240 h, read-out: Efficacy in %, found
[9] = 72 h, read-out: Mortality in % after 3 d, found
[10] = Phytophthora infestans, 72 h, read-out: Efficacy in %, found, Table I1, 100 ppm a.i.
[11] = Phytophthora infestans, 72 h, read-out: Efficacy in %, found, Table I1
[12] = 72 h, 4 ppm a.i., after 3 d, read-out: Mortality in % after 3 d, found
[13] = 48 h, after 2 d, read-out: Mortality in % after 2 d, found
[14] = 24 h, after 1 d, read-out: Mortality in % after 1 d, found
[15] = 72 h, after 3 d, read-out: Mortality in % after 3 d, found
[16] = Alternaria solani, 72 h, read-out: Efficacy in %, found, Table E1, 3 days after the inoculation
[17] = Alternaria solani, 72 h, read-out: Efficacy in %, found, Table E2, 3 days after the inoculation

Compound: Cc1c(F)c(F)c(COC(=O)[C@@H]2[C@H](/C=C(\Cl)C(F)(F)F)C2(C)C)c(F)c1F (racemic) [(3A.43), tefluthrin]
- pest or weed control at 200 ppm (Phytophthora infestans; [7]): 0%
- Efficacy in %, found (Septoria tritici; 500 ppm a.i.): 0%
- pest or weed control at 100 ppm [1, 8]: 23%

Compound: CNC(=O)Oc1cc(C)c(SC)c(C)c1 [(1A.15), methiocarb]
- mortality at 20 ppm [2, 9]: 35%
- pest or weed control at 100 ppm (Alternaria solani; Alternaria solani, 72 h): 45%
- pest or weed control at 200 ppm (Alternaria solani; Alternaria solani, 72 h): 47%
- pest or weed control at 100 ppm (Phytophthora infestans; Phytophthora infestans, 72 h, read-out: Efficacy in %, found, Table I2, 100 ppm a.i.): 16%
- pest or weed control at 100 ppm [1, 8]: 4%

Compound: CS/C(C)=N\OC(=O)N(C)SN(C)C(=O)O/N=C(\C)SC [(1A.21), thiodicarb]
- pest or weed control at 200 ppm (Alternaria solani; Alternaria solani, 72 h): 52%
- Efficacy in %, found ([3]; 1000 ppm a.i.): 0%

Compound: N#Cc1nn(-c2c(Cl)cc(C(F)(F)F)cc2Cl)c(N)c1[S+]([O-])C(F)(F)F (stereo not shown) [(2B.2), fipronil]
- pest or weed control at 100 ppm (Alternaria solani; Alternaria solani, 72 h): 28%
- pest or weed control at 200 ppm (Alternaria solani; Alternaria solani, 72 h): 44%
- pest or weed control at 100 ppm (Phytophthora infestans; [10]): 30%
- pest or weed control at 200 ppm (Phytophthora infestans; [11]): 47%
- Efficacy in %, found (Pyrenophora teres; Table J2, 500 ppm a.i.): 0%
- pest or weed control at 200 ppm [1, 8]: 8%

Compound: CC1(C)C(C=C(Cl)Cl)C1C(=O)OC(C#N)c1ccc(F)c(Oc2ccccc2)c1 (stereo not shown) [(3A.10), cyfluthrin]
- Efficacy in %, found (Pyrenophora teres; Table J2, 500 ppm a.i.): 0%

Compound: CC1(C)C(C=C(Cl)Cl)C1C(=O)OC(C#N)c1ccc(F)c(Oc2ccccc2)c1 (stereo not drawn) [(3A.11), β-cyfluthrin]
- Mortality in % after 2 d, found ([4]; 4 ppm a.i., after 2 d): 40%

Compound: CC1(C)[C@H](C=C(Cl)Cl)[C@H]1C(=O)OCc1c(F)c(F)cc(F)c1F [(3A.46), transfluthrin]
- mortality at 4 ppm [5, 12]: 0%

Compound: C/C(=N\C#N)N(C)Cc1ccc(Cl)nc1 [(4A.1), acetamiprid]
- mortality at 4 ppm ([5]; 24 h, read-out: Mortality in % after 1 d, found): 10%
- mortality at 4 ppm [2, 9]: 0%
- pest or weed control at 200 ppm (Phytophthora infestans; [11]): 27%
- Efficacy in %, found (Botrytis cinerea; 100 ppm a.i.): 0%

Compound: CN/C(=N\[N+](=O)[O-])NCc1cnc(Cl)s1 [(4A.2), clothianidin]
- mortality at 4 ppm [2, 12]: 0%
- pest or weed control at 100 ppm (Alternaria solani; Alternaria solani, 72 h): 49%
- pest or weed control at 200 ppm (Alternaria solani; Alternaria solani, 72 h): 45%
- pest or weed control at 100 ppm (Phytophthora infestans; [10]): 30%
- Efficacy in %, found (Pyrenophora teres; Table J2, 500 ppm a.i.): 0%
- pest or weed control at 100 ppm [1, 8]: 0%
- pest or weed control at 200 ppm [1, 8]: 0%

Compound: O=[N+]([O-])NC1=NCCN1Cc1ccc(Cl)nc1 [(4A.4), imidacloprid]
- mortality at 20 ppm ([2]; 24 h, 20 ppm a.i., after 1 d, read-out: Mortality in % after 1 d, found): 0%
- Efficacy in % 1 d after infestation, found ([6]; 0.25 mg a.i./seed): 0%
- pest or weed control at 100 ppm (Alternaria solani; Alternaria solani, 72 h): 13%
- pest or weed control at 200 ppm (Alternaria solani; Alternaria solani, 72 h): 30%
- Efficacy in %, found (Fusarium graminearum): 0%

Compound: N#C/N=C1\SCCN1Cc1ccc(Cl)nc1 [(4A.6), thiacloprid]
- mortality at 4 ppm ([5]; 4 ppm a.i., after 4 h, read-out: Mortality in % after 4 h, found): 20%
- pest or weed control at 100 ppm (Alternaria solani; Alternaria solani, 72 h): 13%
- pest or weed control at 100 ppm (Phytophthora infestans; [10]): 16%
- pest or weed control at 200 ppm [1, 8]: 4%
- Efficacy in %, found ([3]; 1000 ppm a.i.): 0%

Compound: CN1COCN(Cc2cnc(Cl)s2)/C1=N\[N+](=O)[O-] [(4A.7), thiamethoxam]
- pest or weed control at 200 ppm (Alternaria solani; Alternaria solani, 72 h, Table E1, 200 ppm a.i., 3 days after the inoculation): 64%
- pest or weed control at 100 ppm (Phytophthora infestans; [10]): 30%
- Efficacy in %, found (Pyrenophora teres; Table J1, 1000 ppm a.i.): 0%
- Efficacy in %, found (Botrytis cinerea; 100 ppm a.i.): 0%
- pest or weed control at 100 ppm [1, 8]: 18%
- pest or weed control at 200 ppm [1, 8]: 25%

Compound: CNC(=O)c1cc(Cl)cc(C)c1NC(=O)c1cc(Br)nn1-c1ncccc1Cl [(26.1), chloranthraniliprole (rynaxypyr)]
- mortality at 0.8 ppm [5, 13]: 40%
- mortality at 4 ppm ([4]; Plutella xylostella, 24 h, 4 ppm a.i., after 1 d, read-out: Mortality in % after 1 d, found): 25%
- pest or weed control at 100 ppm (Alternaria solani; Alternaria solani, 72 h): 37%
- pest or weed control at 200 ppm (Alternaria solani; Alternaria solani, 72 h): 37%
- pest or weed control at 100 ppm (Phytophthora infestans; [10]): 32%
- Efficacy in %, found (Pyrenophora teres; Table J2, 500 ppm a.i.): 14%
- Efficacy in %, found (Botrytis cinerea; 100 ppm a.i.): 0%
- Efficacy in %, found (Botrytis cinerea; 200 ppm a.i.): 0%
- pest or weed control at 100 ppm [1, 8]: 0%

Compound: CNC(=O)c1cc(C#N)cc(C)c1NC(=O)c1cc(Br)nn1-c1ncccc1Cl [(26.2), cyantraniliprole (cyazypyr)]
- mortality at 4 ppm ([5]; 48 h, 4 ppm a.i., after 2 d, read-out: Mortality in % after 2 d, found): 50%
- mortality at 0.8 ppm ([2]; 72 h, 0.8 ppm a.i., after 3 d, read-out: Mortality in % after 3 d, found): 25%
- pest or weed control at 100 ppm (Alternaria solani; Alternaria solani, 72 h): 28%
- pest or weed control at 100 ppm (Phytophthora infestans; [10]): 30%
- Efficacy in %, found (Botrytis cinerea; 100 ppm a.i.): 0%
- Efficacy in %, found (Botrytis cinerea; 200 ppm a.i.): 0%
- pest or weed control at 100 ppm [1, 8]: 0%
- pest or weed control at 200 ppm [1, 8]: 18%

Compound: O=C1C=C(N(Cc2ccc(Cl)nc2)CC(F)F)CO1 [(27.16), 4-{[(6-chloropyridin-3-yl)methyl](2,2-difluoroethyl)amino}furan-2(5H)-one]
- pest or weed control at 200 ppm (Phytophthora infestans; [7]): 30%
- Efficacy in %, found (Septoria tritici; 1000 ppm a.i.): 0%
- pest or weed control at 200 ppm [1, 8]: 8%

Compound: CC(c1ccc(C(F)(F)F)nc1)S(C)(=O)=NC#N (stereo not shown) [(27.27), sulfoxaflor]
- mortality at 0.8 ppm [5, 14]: 20%
- pest or weed control at 100 ppm (Alternaria solani; Alternaria solani, 72 h): 0%
- pest or weed control at 200 ppm (Alternaria solani; Alternaria solani, 72 h): 51%
- Efficacy in %, found (Botrytis cinerea; 200 ppm a.i.): 0%
- pest or weed control at 100 ppm [1, 8]: 0%

Compound: Cn1c(=O)c2sc3c(=O)n(C)c(=O)c3sc2c1=O [(I-1), 2,6-dimethyl-1H,5H-[1,4]dithiino[2,3-c:5,6-c′]dipyrrole-1,3,5,7(2H,6H)-tetrone]
- mortality at 200 ppm ([5]; after 4 h, read-out: Mortality in % after 4 h, found): 0%
- mortality at 200 ppm [5, 14]: 0%
- mortality at 200 ppm [5, 13]: 0%
- mortality at 200 ppm [5, 15]: 0%
- mortality at 200 ppm [2, 14]: 0%
- mortality at 200 ppm [2, 15]: 0%
- mortality at 200 ppm ([4]; Plutella xylostella, 24 h, after 1 d, read-out: Mortality in % after 1 d, found): 0%
- mortality at 200 ppm ([4]; Plutella xylostella, 48 h, after 2 d, read-out: Mortality in % after 2 d, found): 0%
- Efficacy in % 1 d after infestation, found ([6]; 1 mg a.i./seed): 0%
- Efficacy in % 3 d after infestation, found ([6]; 1 mg a.i./seed): 23.8%
- pest or weed control at 12.5 ppm (Alternaria solani; [16]): 13%
- pest or weed control at 25 ppm (Alternaria solani; [16]): 54%
- pest or weed control at 12.5 ppm (Alternaria solani; [17]): 30%
- pest or weed control at 25 ppm (Alternaria solani; [17]): 50%
- pest or weed control at 50 ppm (Alternaria solani; Alternaria solani, 72 h, read-out: Efficacy in %, found, Table E2, 50 ppm a.i., 3 days after the inoculation): 58%
- Efficacy in %, found (Fusarium graminearum): 50%
- pest or weed control at 12.5 ppm (Phytophthora infestans; Phytophthora infestans, 72 h, read-out: Efficacy in %, found, Table I1, 12.5 ppm a.i.): 18%
- pest or weed control at 50 ppm (Phytophthora infestans; [11]): 43%
- pest or weed control at 50 ppm (Phytophthora infestans; [7]): 28%
- Efficacy in %, found (Pyrenophora teres; Table J1, 1000 ppm a.i.): 43%
- Efficacy in %, found (Pyrenophora teres; Table J2, 500 ppm a.i.): 43%
- Efficacy in %, found (Septoria tritici; 500 ppm a.i.): 0%
- Efficacy in %, found (Botrytis cinerea; 25 ppm a.i.): 13%
- Efficacy in %, found (Botrytis cinerea; 50 ppm a.i.): 48%
- pest or weed control at 12.5 ppm [1, 8]: 33%
- pest or weed control at 50 ppm [1, 8]: 29%
- Efficacy in %, found ([3]; 500 ppm a.i.): 29%

Compound: abamectin [(6.1)]
- Mortality in % after 1 d, found ([4]; 4 ppm a.i., after 1 d): 75%
- Efficacy in % 3 d after infestation, found ([6]; 0.25 mg a.i./seed): 4.8%
- Efficacy in %, found (Alternaria solani; Table E2, 100 ppm a.i., 3 days after the inoculation): 32%
- Efficacy in %, found ([1]; 100 ppm a.i.): 53%
- Efficacy in %, found ([1]; 200 ppm a.i.): 51%

Compound: spinosad [(5.2)]
- Mortality in % after 1 d, found ([4]; 4 ppm a.i., after 1 d): 70%
- Efficacy in %, found (Phytophthora infestans; Table I2, 100 ppm a.i.): 10%
- Efficacy in %, found (Pyrenophora teres; Table J1, 1000 ppm a.i.): 0%
